Patent US10336735B2, “Small molecule inhibitors of fibrosis” (THE CALIFORNIA INSTITUTE FOR BIOMEDICAL RESEARCH, priority 2014, dated 2019)

Each molecule was assayed on primary human lung fibroblasts and primary rodent HSCs (assay: High content imaging assay (α-SMA staining, cell morphology) of fibroblast to myofibroblast transdifferentiation, confirmed by Western blot and RT-PCR). Details: Homo sapiens, Fibroblast; imaging and western based activity.
Description: High content imaging assays have been established, using primary human lung fibroblasts and primary rodent HSCs, that enable the identification of small molecules that either inhibit myofibroblast formation/activation or induce the reversion of activated myofibroblasts to a quiescent fibroblast state. Conditions, involving serum starvation and subsequent TGF-β treatment, have been identified that facilitate robust in vitro transdifferentiation in a miniaturized (384 well plate) format that is amenable to high throughput small molecule screening. The inhibition assay is based on α-SMA immunofluorescent staining and cell morphology changes associated with fibroblast to myofibroblast transdifferentiation, Using the selective ALK-5 TGF-β1 receptor inhibitor ([…]) as a positive control, the inhibition assay has been used to initiate a screen of a collection of ˜100,000 small molecules that consists of bioactive small molecules and a diversity set that has been assembled based on 2D and 3D structural diversity and inherent “drug-likeness” properties. Preliminary screening led to the identification of multiple previously identified anti-fibrotic molecules.
A high content imaging assay, based on α-SMA staining and cell morphological changes associated with fibroblast to myofibroblast transdifferentiation, was established using primary human lung fibroblasts and primary rodent HSCs. Conditions, involving serum starvation and subsequent TGF-β treatment, were identified that facilitate robust in vitro transdifferentiation in a miniaturized (384 well plate) format that is amenable to high throughput small molecule screening. A selective ALK-5 TGF-β1 receptor inhibitor (SB-431542) was used as a positive control. […] This assay was used to evaluate compounds of Formula (I), (Ia), (II), (IIa), (III), (IIIa), (IV), (IVa), (IVb), (V), (Va), (VI), (VIa), (VIb), (VIc), (VII), (VIIa), (VIII), (VIIIa), (IX), (IXa), (X), or (Xa) generated from medicinal chemistry efforts.
The activity of Itraconazole and compounds of Formula (I), (Ia), (II), (IIa), (III), (IIIa), (IV), (IVa), (IVb), (V), (Va), (VI), (VIa), (VIb), (VIc), (VII), (VIIa), (VIII), (VIIIa), (IX), (IXa), (X), or (Xa) was confirmed by analyzing changes in gene expression of multiple genes associated with fibroblast to myofibroblast transdifferentiation using biochemical methods (i.e., Western blot and RT-PCR). These 4-day assays were used to evaluate sets of 6 compounds at a time in 4-point dose response fashion.
The EC50 for (imaging and western based) activity is graded as: +++=<500 nM; ++=500 nM to 5 μM; +=5 to 30 μM); −=>30 μM; NT=Not Tested.
In the case of `CCC(C)n1ncn(-c2ccc(N3CCN(c4ccc(OC[C@@H]5CO[C@@](Cc6ccnnc6)(c6ccc(C(F)(F)F)cc6)O5)cc4)CC3)cc2)c1=O` (stereo partly drawn) [Compound 134], the EC50 is reported as less than 500 nM.
With `CCC(C)n1ncn(-c2ccc(N3CCN(c4ccc(OC[C@@H]5CO[C@](Cc6ccnnc6)(c6ccccc6OC)O5)cc4)CC3)cc2)c1=O` (stereo partly drawn) [Compound 107] the EC50 was 500 to 5000 nM.
With `CCC(C)n1ncn(-c2ccc(N3CCN(c4ccc(OC[C@@H]5CO[C@](Cc6ccnnc6)(c6ccc(S(C)(=O)=O)cc6)O5)cc4)CC3)cc2)c1=O` (stereo partly drawn) [Compound 119] the EC50 was 5000 to 30000 nM.
Molecule `CC(C)n1ncn(-c2ccc(N3CCN(c4ccc(OC[C@@H]5CO[C@@](Cn6nccn6)(c6ccccc6)O5)cc4)CC3)cc2)c1=O` [Compound 18] has an EC50 of 5000 to 30000 nM.
`CCC(C)n1ncn(-c2ccc(N3CCN(c4ccc(OC[C@@H]5CO[C@@](CN6CCOCC6)(c6ccc(Cl)cc6Cl)O5)cc4)CC3)cc2)c1=O` (stereo partly drawn) [Compound 44] gave an EC50 greater than 30000 nM.
Molecule `CCC(C)n1ncn(-c2ccc(N3CCN(c4ccc(OC[C@@H]5CO[C@@](Cn6cccn6)(c6ccccc6C)O5)cc4)CC3)cc2)c1=O` (stereo partly drawn) [Compound 95] has an EC50 of less than 500 nM.
Molecule `CCC(C)n1ncn(-c2ccc(N3CCN(c4ccc(OC[C@@H]5CO[C@](Cc6ccnnc6)(c6ccc(Cl)cc6)O5)cc4)CC3)cc2)c1=O` (stereo partly drawn) [Compound 103] has an EC50 of 500 to 5000 nM.
In the case of `CCC(C)n1ncn(-c2ccc(N3CCN(c4ccc(OC[C@@H]5CO[C@@](CCn6nccn6)(c6ccc(Cl)cc6Cl)O5)cc4)CC3)cc2)c1=O` (stereo partly drawn) [Compound 52], the EC50 is reported as less than 500 nM.
Work on `CCC(C)n1ncn(-c2ccc(N3CCN(c4ccc(OC[C@@H]5CO[C@@](Cn6nccn6)(c6ncccn6)O5)cc4)CC3)cc2)c1=O` (stereo partly drawn) [Compound 38] yielded an EC50 greater than 30000 nM.
Work on `CCC(C)n1ncn(-c2ccc(N3CCN(c4ccc(OCCO[C@@H](Cn5nccn5)c5ccccc5)cc4)CC3)cc2)c1=O` (stereo partly drawn) [Compound 141] yielded an EC50 greater than 30000 nM.
Work on `CC[C@H](C)n1ncn(-c2ccc(N3CCN(c4ccc(OC[C@H]5CO[C@](Cn6cccn6)(c6ccc(C#N)cc6C)O5)cc4)CC3)cc2)c1=O` [Compound 174] yielded an EC50 of 500 to 5000 nM.
`CC[C@@H](C)n1ncn(-c2ccc(N3CCN(c4ccc(OC[C@@H]5CO[C@@](Cn6cccn6)(c6ccc(C#N)cc6C)O5)cc4)CC3)cc2)c1=O` [Compound 173] gave an EC50 of 500 to 5000 nM.
Molecule `CCC(C)n1ncn(-c2ccc(N3CCN(c4ccc(OC[C@@H]5CO[C@@](Cc6ccnnc6)(c6ccc(C#N)cc6)O5)cc4)CC3)cc2)c1=O` (stereo partly drawn) [Compound 131] has an EC50 greater than 30000 nM.
Molecule `CCC(C)n1ncn(-c2ccc(N3CCN(c4ccc(OC[C@@H]5CO[C@@](Cn6cccn6)(c6ccc(C(N)=O)cc6)O5)cc4)CC3)cc2)c1=O` (stereo partly drawn) [Compound 100] has an EC50 of 500 to 5000 nM.
`CCC(C)n1ncn(-c2ccc(N3CCN(c4ccc(OC[C@@H]5CO[C@@](Cn6nccn6)(c6ccc(Cl)cc6Cl)O5)cc4CN)CC3)cc2)c1=O` (stereo partly drawn) [Compound 55] gave an EC50 of less than 500 nM.
`CCC(C)n1ncn(-c2ccc(N3CCN(c4ccc(OC[C@@H]5CO[C@@](Cn6cccn6)(c6cccc(C)c6)O5)cc4)CC3)cc2)c1=O` (stereo partly drawn) [Compound 96] gave an EC50 of less than 500 nM.
For `CCC(C)n1ncn(-c2ccc(N3CCN(c4ccc(OC[C@@H]5CO[C@](Cc6ccnnc6)(c6ccccc6C(F)(F)F)O5)cc4)CC3)cc2)c1=O` (stereo partly drawn) [Compound 112], the EC50 was 500 to 5000 nM.
`CCC(C)n1ncn(-c2ccc(N3CCN(c4ccc(OC[C@@H]5CO[C@](Cc6ccnnc6)(c6ccc(S(N)(=O)=O)cc6)O5)cc4)CC3)cc2)c1=O` (stereo partly drawn) [Compound 120] gave an EC50 greater than 30000 nM.
`CCC(C)n1ncn(-c2ccc(N3CCN(c4ccc(OC[C@@H]5CO[C@@](Cc6ccnnc6)(c6cccc(C#N)c6)O5)cc4)CC3)cc2)c1=O` (stereo partly drawn) [Compound 130] was tested, and the EC50 was 500 to 5000 nM.
`CCC(C)n1ncn(-c2ccc(N3CCN(c4ccc(OC[C@@H]5CO[C@@](CCl)(c6ccc(Cl)cc6Cl)O5)cc4)CC3)cc2)c1=O` (stereo partly drawn) [Compound 39] was tested, and the EC50 was 500 to 5000 nM.
In the case of `CCC(C)n1ncn(-c2ccc(N3CCN(c4ccc(OC[C@@H]5CO[C@@](Cc6ccnnc6)(c6cc(Cl)cc(Cl)c6)O5)cc4)CC3)cc2)c1=O` (stereo partly drawn) [Compound 139], the EC50 is reported as less than 500 nM.
Molecule `CCC(C)n1ncn(-c2ccc(N3CCN(c4ccc(OC[C@@H]5CO[C@@](Cn6nccn6)(c6cc(Cl)ccc6Cl)O5)cc4)CC3)cc2)c1=O` (stereo partly drawn) [Compound 33] has an EC50 of 500 to 5000 nM.
`CCC(C)n1ncn(-c2ccc(N3CCN(c4ccc(OC[C@H]5CO[C@@](Cn6nccn6)(c6ccccc6)O5)cc4)CC3)cc2)c1=O` (stereo partly drawn) [Compound 188] was tested, and the EC50 was 5000 to 30000 nM.
In the case of `CCC(C)n1ncn(-c2ccc(N3CCN(c4ccc(OC[C@@H]5CO[C@@](Cn6nccn6)(c6ccc(C#N)cc6C)O5)cc4)CC3)cc2)c1=O` (stereo partly drawn) [Compound 24], the EC50 is reported as 500 to 5000 nM.
`CCC(C)n1ncn(-c2ccc(N3CCN(c4ccc(OC[C@@H]5CO[C@@](Cc6ccnnc6)(c6ccccc6OC)O5)cc4)CC3)cc2)c1=O` (stereo partly drawn) [Compound 127] gave an EC50 of less than 500 nM.
Molecule `CCC(C)n1ncn(-c2ccc(N3CCN(c4ccc(OC[C@@H]5CO[C@@](Cn6nccn6)(c6ccccc6)O5)cc4F)CC3)cc2)c1=O` (stereo partly drawn) [Compound 58] has an EC50 of less than 500 nM.
In the case of `CCC(C)n1ncn(-c2ccc(N3CCN(c4ccc(OC[C@@H]5CO[C@@](Cn6nccn6)(c6ccccc6)O5)cc4CN)CC3)cc2)c1=O` (stereo partly drawn) [Compound 67], the EC50 is reported as 500 to 5000 nM.
In the case of `CC(O)C(C)n1cnn(-c2ccc(N3CCN(c4ccc(OC[C@@H]5CO[C@@](Cn6nccn6)(c6ccccc6)O5)cc4)CC3)cc2)c1=O` (stereo partly drawn) [Compound 16], the EC50 is reported as 5000 to 30000 nM.
Work on `CCC(CC)n1ncn(-c2ccc(N3CCN(c4ccc(OC[C@@H]5CO[C@@](Cn6nccn6)(c6ccc(Cl)cc6Cl)O5)cc4F)CC3)cc2)c1=O` [Compound 164] yielded an EC50 of less than 500 nM.
Molecule `CCC(C)n1ncn(-c2ccc(N3CCN(c4ccc(OC[C@@H]5CO[C@@](Cn6nccn6)(c6cc(Cl)ccc6C)O5)cc4)CC3)cc2)c1=O` (stereo partly drawn) [Compound 34] has an EC50 of 500 to 5000 nM.
`CCC(C)n1ncn(-c2ccc(N3CCN(c4ccc(OC[C@@H]5CO[C@@](Cn6nc7ccccc7n6)(c6ccc(C#N)cc6C)O5)cc4)CC3)cc2)c1=O` (stereo partly drawn) [Compound 50] gave an EC50 of 500 to 5000 nM.
With `CCC(C)n1ncn(-c2ccc(N3CCN(c4ccc(OC[C@@H]5CO[C@@](Cn6nccn6)(c6cc(C#N)ccc6Cl)O5)cc4)CC3)cc2)c1=O` (stereo partly drawn) [Compound 27] the EC50 was 5000 to 30000 nM.
`CCC(C)n1ncn(-c2ccc(N3CCN(c4ccc(OC[C@@H]5CO[C@@](Cn6nccn6)(c6ccc(Cl)cc6Cl)O5)cc4)CC3)c(F)c2)c1=O` (stereo partly drawn) [Compound 69] gave an EC50 of 500 to 5000 nM.
Work on `CCC(C)n1ncn(-c2ccc(N3CCN(c4ccc(OC[C@@H]5CO[C@](Cc6ccnnc6)(c6ccc(C(F)(F)F)cc6)O5)cc4)CC3)cc2)c1=O` (stereo partly drawn) [Compound 114] yielded an EC50 of less than 500 nM.
In the case of `CCC(C)n1ncn(-c2ccc(N3CCN(c4ccc(OC[C@@H]5CO[C@@](Cc6ccnnc6)(c6ccc(Cl)cc6)O5)cc4)CC3)cc2)c1=O` (stereo partly drawn) [Compound 123], the EC50 is reported as less than 500 nM.
Work on `CCC(C)n1ncn(-c2ccc(N3CCN(c4ccc(OC[C@@H]5CO[C@@](Cc6ccnnc6)(c6ccc(C)cc6)O5)cc4)CC3)cc2)c1=O` (stereo partly drawn) [Compound 138] yielded an EC50 of less than 500 nM.
For `CCC(C)n1ncn(-c2ccc(N3CCN(c4ccc(OC[C@@H]5CO[C@@](Cn6nccn6)(c6ccc(Br)cc6Br)O5)cc4)CC3)cc2)c1=O` (stereo partly drawn) [Compound 30], the EC50 was 500 to 5000 nM.
`CCC(C)n1ncn(-c2ccc(N3CCN(c4ccc(OC[C@@H]5CO[C@@](Cn6cccn6)(c6ccccc6)O5)cc4)CC3)cc2)c1=O` (stereo partly drawn) [Compound 48] was tested, and the EC50 was less than 500 nM.
In the case of `CCC(C)n1ncn(-c2ccc(N3CCN(c4ccc(OC[C@@H]5CO[C@@](Cn6cccn6)(c6ccc(S(C)(=O)=O)cc6)O5)cc4)CC3)cc2)c1=O` (stereo partly drawn) [Compound 98], the EC50 is reported as 500 to 5000 nM.
`CCC(C)n1ncn(-c2ccc(N3CCN(c4ccc(OC[C@@H]5CO[C@](Cc6ccnnc6)(c6cc(Cl)cc(Cl)c6)O5)cc4)CC3)cc2)c1=O` (stereo partly drawn) [Compound 122] was tested, and the EC50 was less than 500 nM.
For `CCC(C)n1ncn(-c2ccc(N3CCN(c4ccc(OC[C@@H]5CO[C@@](Cn6cccn6)(c6ccccc6C(F)(F)F)O5)cc4)CC3)cc2)c1=O` (stereo partly drawn) [Compound 91], the EC50 was less than 500 nM.
`CCC(C)n1ncn(-c2ccc(N3CCN(c4ccc(OC[C@@H]5CO[C@@](Cn6nccn6)(c6ccccc6)O5)cc4)CC3)cc2)c1=O` (stereo partly drawn) [Compound 178] gave an EC50 of less than 500 nM.
With `CC[C@@H](C)n1ncn(-c2ccc(N3CCN(c4ccc(OC[C@H]5CO[C@@](Cn6nccn6)(c6ccccc6)O5)cc4)CC3)cc2)c1=O` [Compound 184] the EC50 was less than 500 nM.
Work on `CCC(C)n1ncn(-c2ccc(OC[C@@H]3CO[C@@](Cn4nccn4)(c4ccc(Cl)cc4Cl)O3)cc2)c1=O` (stereo partly drawn) [Compound 6] yielded an EC50 greater than 30000 nM.

Same assay, conditions: imaging and western based activity
For “cis (±)-4-(4-(4-(4-((4-((2H-1,2,3-triazol-2-yl)methyl)-4-(2,4-difluorophenyl)-1,3-dioxolan-2-yl)methoxy)phenyl)piperazin-1-yl)phenyl)-1-sec-butyl-1H-1,2,4-triazol-5(4H)-one [Compound 199]”, the EC50 was less than 500 nM.
